Data from patent US3996228A, “Pyrimidinoaminoethyl ergoline derivatives” (Societa' Farmaceutici Italia S.p.A., priority 1973, dated 1976).
≈ marks a conversion by molar mass, not a printed value. Like-named read-outs stand apart in the source and are kept apart here.

Key:
hypertensive rat = assay: hypotensive activity on the hypertensive rat; type: in vivo; conditions: po, per os, dose which causes a pressure drop of about 30-40 mmHg, read-out: Hypotensive Activity active dose
Method: The hypotensive activity was tested on the hypertensive rat; the reported data being the dose expressed in mg/Kg per os, which causes a pressure drop of about 30-40 mmHg.

[1] = analgesic activity, hot plate test; type: in vivo; conditions: for Analgesic Activity Hot Plate, relative to D-propoxyphene: D-propoxyphene = 1
Method: (§1) The analgesic activity was evaluated by means of the hot plate test and the writhing test, the data being given in comparison with morphine and D-propoxyphene.
(§2) In the hot plate and writhing tests, the comparison compounds morphine and D-propoxyphene have been arbitrarily assigned the value of 1.

[2] = analgesic activity, writhing test; type: in vivo
Method: as §1, §2

LD50 (acute toxicity) = conditions: rat, in vivo, rats
Method: (§3) The compounds of the present invention have a high and prolonged adrenolytic activity and a low toxicity and are therefore useful in therapy. This adrenolytic activity was tested "in vitro" on isolated guinea pig seminal vescicle suspended in physiological solution and "in vivo" on the rat. Table 1 reports the values of concentrations, in γ/ml, which are able to produce a 50% inhibition (IC50) of the spasmogen effect caused by adrenaline and the doses in mg/Kg (ED50) able to reduce by 50% the lethal effects caused by adrenaline after oral (os) and intravenous (i.v.) administration of the compounds in question. Table 1 also reports the LD50 values, both per os and i.v. in rats.

[3] = test system: isolated guinea pig seminal vescicle; assay: adrenolytic activity in vitro: inhibition of the spasmogen effect caused by adrenaline; type: cell-based; conditions: Cavia porcellus, 50% inhibition of spasmogen effect caused by adrenaline
Method: as §3

[4] = test system: lethal effects caused by adrenaline; assay: adrenolytic activity in vivo: reduction of the lethal effects caused by adrenaline; conditions: rat, 50% reduction of lethal effects caused by adrenaline
Method: as §3

[5] = morphine = 1, listed as 1,6-dimethyl-8β-[5-amino-2-pyrimidino-aminoethyl]-10α-ergoline
[6] = iv, i.v., read-out: Adrenolytic Activity "in vivo" ED50 i.v.
[7] = po, per os, read-out: Adrenolytic Activity "in vivo" ED50 os

Structure (SMILES)	ED (30-40 mmHg pressure drop) (hypertensive rat)	Analgesic Activity Hot Plate, relative to D-propoxyphene [1]	Analgesic Activity Hot Plate, relative to morphine ([1]; morphine = 1)	Analgesic Activity Hot Plate, relative to morphine [1, 5]	Analgesic Activity Writhing, relative to D-propoxyphene ([2]; D-propoxyphene = 1)	Analgesic Activity Writhing, relative to morphine ([2]; morphine = 1)	Analgesic Activity Writhing, relative to morphine [2, 5]	LD50 (LD50 (acute toxicity); iv, i.v., read-out: LD50 i.v.)	LD50 (LD50 (acute toxicity); po, per os, read-out: LD50 os)	IC50 [3]	ED50 [4, 6]	ED50 [4, 7]
CN1C[C@H](CCNc2ncc(N)cn2)C[C@@H]2c3cccc4c3c(cn4C)C[C@H]21 [1,6-dimethyl-8β-[5-amino-2-pyrimidinoaminoethyl]-10α-ergoline]	10 mg/kg	5	1	same activity as morphine	10	1	same activity as morphine					
Cc1cnc(NCC[C@@H]2C[C@@H]3c4cccc5c4c(cn5C)C[C@H]3N(C)C2)nc1 [1,6-Dimethyl-8β-[5-methyl-2-pyrimidinoaminoethyl]-10α-ergoline]								19 mg/kg	130 mg/kg	0.5 mg/L (≈ 1.33 µM)	0.07 mg/kg	0.5 mg/kg
CN1C[C@H](CCNc2ncccn2)C[C@@H]2c3cccc4c3c(cn4C)C[C@H]21 [1,6-dimethyl-8β-[2-pyrimidinoaminoethyl]-10α-ergoline]								18 mg/kg	100 mg/kg	0.001 mg/L (≈ 0.00277 µM)	0.2 mg/kg	0.1 mg/kg
CO[C@]12C[C@@H](CCNc3ncc([N+](=O)[O-])cn3)CN(C)[C@@H]1Cc1cn(C)c3cccc2c13 [1,6-Dimethyl-8β-[5-nitro-2-pyrimidinoaminoethyl]-10α-methoxyergoline]									150 mg/kg	0.5 mg/L (≈ 1.15 µM)	0.25 mg/kg	0.42 mg/kg
CO[C@]12C[C@@H](CCNc3ncc(Br)cn3)CN(C)[C@@H]1Cc1cn(C)c3cccc2c13 [1,6-dimethyl-8β-[5-bromo-2-pyrimidinoaminoethyl]-10α-methoxyergoline]									200 mg/kg	0.01 mg/L (≈ 0.0213 µM)	0.65 mg/kg	> 1 mg/kg
COc1cnc(NCC[C@@H]2C[C@@H]3c4cccc5c4c(cn5C)C[C@H]3N(C)C2)nc1 [1,6-dimethyl-8β-[5-methoxy-2-pyrimidinoaminoethyl]-10α-ergoline]	10 mg/kg	2	0.5									
